Measured values: PubChem BioAssay AID651973 (The Scripps Research Institute Molecular Screening Center, 2013)
pIC50: −log10 of the molar value. The source made the active and inactive calls. No rule for the calls is given here.

Each compound was assayed on Cell-based VP16 transactivation luciferase reporter, luminescence (assay: VP16 transactivation reporter inhibitors, dose response, counter-screen for LRH-1 inverse agonist project, cell-based, luminescence (AID 651973)).

Q: With `O=C(CSc1nncc(=O)[nH]1)Nc1cccc([N+](=O)[O-])c1` as the compound, how does the IC50 read?
A: The IC50 was 34.4 µM (inactive).

Q: With `CN(C)S(=O)(=O)c1cccc(C(=O)OCC(=O)Nc2ccc3c(c2)OCCO3)c1` as the compound, how does the IC50 read?
A: Its IC50 is > 35.9 µM (inactive).

Q: With `COC(=O)c1ccc(NC(=O)COc2cccc(-n3cnnn3)c2)cc1` as the compound, how does the IC50 read?
A: The IC50 was > 35.9 µM (inactive).

Q: How did the IC50 turn out when `CCOc1ccc(NC(=O)CSc2nnc(C(C)C)n2CC)cc1` was run?
A: Its IC50 is > 35.9 µM (inactive).

Q: Which IC50 does the source give for `CCc1cc(=O)oc2c(C)c(OCC(=O)NC3CC(C)(C)NC(C)(C)C3)ccc12` here?
A: The IC50 was > 35.9 µM (inactive).

Q: For `Cc1cc(C)c2nc(NC(=O)c3ccc([N+](=O)[O-])o3)sc2c1`, which IC50 is on record?
A: Its IC50 is > 35.9 µM (inactive).

Q: With `O=C(CCl)NCCCN(C(=O)C(Cl)Cl)c1ccc([N+](=O)[O-])cc1` as the compound, how does the IC50 read?
A: Its IC50 is 28.4 µM (inactive).

Q: With `O=C(Nc1ccc(S(=O)(=O)N2CCOCC2)cc1)c1ccc([N+](=O)[O-])o1` as the compound, how does the IC50 read?
A: The IC50 was 25.5 µM (inactive).

Q: `CCCc1cc(=O)oc2cc(C)cc(OCC(=O)NC3CC3)c12` was tested. Which IC50 did it give?
A: The IC50 was > 35.9 µM (inactive).

Q: For `O=C(COc1ccc2c3c(c(=O)oc2c1)CCCC3)NCCCN1CCOCC1`, which IC50 is on record?
A: Its IC50 is > 35.9 µM (inactive).

Q: How did the IC50 turn out when `CCCc1cc(=O)oc2cc(OCC(=O)NCc3ccccn3)ccc12` was run?
A: The IC50 was > 35.9 µM (inactive).

Q: With `C[C@H](CO)N1C[C@H](C)[C@H](CN(C)Cc2ccncc2)Oc2cc(-c3ccccc3F)ccc2S1(=O)=O` as the compound, how does the IC50 read?
A: Its IC50 is 14.6 µM (inactive).

Q: For `COc1ccc(CCNC(=O)CN2C(=O)NC3(CCCCC3C)C2=O)cc1` (configuration not stated), which IC50 is on record?
A: The IC50 was > 35.9 µM (inactive).

Q: With `CC1CCC2(CC1)NC(=O)N(CC(=O)Nc1ccc3c(c1)OCCCO3)C2=O` (configuration not stated) as the compound, how does the IC50 read?
A: The IC50 was > 35.9 µM (inactive).

Q: How did the IC50 turn out when `CC(O)(c1ccc(F)c(F)c1)c1nc(-c2ccc(S(C)(=O)=O)cc2)cs1` (configuration not stated) was run?
A: Its IC50 is 34.7 µM (inactive).

Q: For `COC(=O)c1ccc(NC(=O)CSc2nncn2-c2cccnc2)cc1`, which IC50 is on record?
A: Its IC50 is > 35.9 µM (inactive).

Q: Which IC50 does the source give for `Cc1cc(OCC(=O)NCc2cccnc2)c2c(C)c(C)c(=O)oc2c1` here?
A: Its IC50 is > 35.9 µM (inactive).

Q: For `CCCc1cc(=O)oc2c(C)c(OCC(=O)NCCN3CCOCC3)ccc12`, which IC50 is on record?
A: Its IC50 is > 35.9 µM (inactive).

Q: How did the IC50 turn out when `O=C(Nc1ccc(S(=O)(=O)N2CCOCC2)cc1)c1cccc([N+](=O)[O-])c1` was run?
A: Its IC50 is > 35.9 µM (inactive).

Q: How did the IC50 turn out when `CC1CCCN(c2cc(N(C)CCO)c([N+](=O)[O-])c3nonc23)C1` (configuration not stated) was run?
A: The IC50 was > 35.9 µM (inactive).

Q: For `CC(=O)Nc1cc(-c2ccc(S(C)(=O)=O)cc2)cn2c(-c3ccc(F)cc3)cnc12`, which IC50 is on record?
A: The IC50 was > 35.9 µM (inactive).

Q: With `CC(=O)Nc1ccc(NC(=O)CSc2ccc(-c3ccc(-n4ccnc4)cc3)nn2)cc1` as the compound, how does the IC50 read?
A: The IC50 was > 35.9 µM (inactive).

Q: With `Cc1ccc(-c2csc(NC(=O)c3ccc([N+](=O)[O-])o3)n2)cc1` as the compound, how does the IC50 read?
A: Its IC50 is > 35.9 µM (inactive).

Q: `Cc1cc(Br)ccc1NC(=O)CSc1nnc(CN2CCOCC2)n1C` was tested. Which IC50 did it give?
A: Its IC50 is > 35.9 µM (inactive).

Q: How did the IC50 turn out when `Cc1ccc(NC(=O)CSc2nc3[nH]c(=O)cc(O)c3s2)c(Br)c1` was run?
A: The IC50 was > 35.9 µM (inactive).

Q: How did the IC50 turn out when `Cc1nn(Cc2ccccc2)c(C)c1C(=O)OCC(=O)Nc1ccccc1SCC#N` was run?
A: Its IC50 is > 35.9 µM (inactive).

Q: How did the pIC50 turn out when `Nc1ccc(C(=O)NN2C(=O)[C@H](Cl)C2c2ccc(Cl)cc2)cc1` (some centres not stated) was run?
A: The pIC50 was 5.01.

Q: How did the IC50 turn out when `COC(=O)c1ccc(N2CCCCC2)c(NC(=O)c2ccco2)c1` was run?
A: Its IC50 is 13.3 µM (inactive).

Q: With `COCCn1c(C)cc(/C=C(\C#N)C(=O)OCC(=O)Nc2ccc(S(N)(=O)=O)cc2)c1C` as the compound, how does the IC50 read?
A: The IC50 was > 35.9 µM (inactive).

Q: How did the IC50 turn out when `COc1ccc(-n2c(/C=C(\C)O)nc(=O)c3c(C)cc(C)nc32)cc1` was run?
A: Its IC50 is > 35.9 µM (inactive).

Q: `O=C(CN1C(=O)NC2(CCCC2)C1=O)NCCc1ccc(F)cc1` was tested. Which IC50 did it give?
A: The IC50 was > 35.9 µM (inactive).

Q: For `COc1ccccc1NC(=O)c1ccc(NC(=O)CSc2nnnn2C)cc1`, which IC50 is on record?
A: Its IC50 is > 35.9 µM (inactive).

Q: For `COc1ccc(Nc2nc(NCCN3CCOCC3)nc(Nc3ccc(OC)cc3)n2)cc1`, which IC50 is on record?
A: Its IC50 is > 35.9 µM (inactive).

Q: With `O=C(COC(=O)CCN1C(=O)C2CC=CCC2C1=O)NCCc1ccccc1` (configuration not stated) as the compound, how does the IC50 read?
A: Its IC50 is > 35.9 µM (inactive).

Q: Which IC50 does the source give for `O=C(NCc1cccnc1)c1cccc2c1C(=O)N(C1CCCCC1)C2` here?
A: The IC50 was > 35.9 µM (inactive).

Q: Which IC50 does the source give for `CCOc1cc(/C=N/n2nnnc2N)ccc1OCc1c(C)no[n+]1[O-]` here?
A: The IC50 was > 35.9 µM (inactive).

Q: How did the IC50 turn out when `COCC(=O)NC1CCN(CC(=O)Nc2ccc(OC)cc2[N+](=O)[O-])CC1` was run?
A: Its IC50 is > 35.9 µM (inactive).

Q: How did the IC50 turn out when `Cc1cc(NC(=O)c2ccc([N+](=O)[O-])o2)ccc1NC(=O)c1ccco1` was run?
A: The IC50 was > 35.9 µM (inactive).

Q: How did the IC50 turn out when `Cc1onc(NC(=O)c2ccc([N+](=O)[O-])o2)c1Br` was run?
A: Its IC50 is > 35.9 µM (inactive).

Q: How did the IC50 turn out when `CCCc1cc(=O)oc2c(C)c(OCC(=O)NCCCn3ccnc3)ccc12` was run?
A: The IC50 was > 35.9 µM (inactive).

Q: How did the IC50 turn out when `COc1ccc(C2(C)NC(=O)N(CC(=O)Nc3ccc(C)cc3Br)C2=O)cc1OC` (configuration not stated) was run?
A: The IC50 was > 35.9 µM (inactive).

Q: Which IC50 does the source give for `O=C(CCl)NCCN1C(=O)S/C(=C\c2cccnc2)C1=O` here?
A: The IC50 was 26.8 µM (inactive).

Q: How did the IC50 turn out when `Cc1ccccc1OCC(=O)N/N=C/c1ccc([N+](=O)[O-])o1` was run?
A: Its IC50 is 29.8 µM (inactive).

Q: For `CC1=CC(O)C(O)C2(C)C1CC1OC(=O)CC3C(C)C(O)C(=O)C2C13CO` (configuration not stated), which IC50 is on record?
A: Its IC50 is > 35.9 µM (inactive).

Q: With `CC(=O)Nc1ccc(NC(=O)COC(=O)Cc2c[nH]c3ccccc23)cc1` as the compound, how does the IC50 read?
A: Its IC50 is > 35.9 µM (inactive).

Q: `COc1cccc(NC(=O)c2oc3ccccc3c2NC(=O)C2CC2)c1` was tested. Which IC50 did it give?
A: The IC50 was > 35.9 µM (inactive).

Q: With `O=C(CN1C(=O)CCC1=O)Nc1ccc(Br)cc1` as the compound, how does the IC50 read?
A: Its IC50 is > 35.9 µM (inactive).
